Experimental findings from patent EP2067861A1, “Animals of the rattus genus wherein msh6 expression is functionally decreased and methods for the generation of specific mutants therefrom” (Koninklijke Nederlandse Akademie van Wetenschappen, priority 2007, dated 2009) are described below.

One data set has as its system msh6^-/- male rats. The data set can be described thus: Survival of ENU treated msh6^-/- male rats. It counts as in vivo, rat. Conditions: for # Surviving founders: 3 x 30 mg/kg bodyweight ENU. The text has this: • Figure 1. Characteristics of the msh6^-/- rat. (A) Genomic organization of the msh6 gene in rats. The arrow marks the position of the ENU-induced mutation that results in a premature stop codon. The sequence trace indicates the T to A […] in a heterozygous rat. (B) Western blot (WB) of testes and cultured rat embryonic fibroblast (CREF) lysates stained with antibodies against human MSH6 (160 kDa). Lysate of human embryonic kidney (HEK) cells was loaded as a positive control. MSH6 protein is completely absent in msh6^-/- testes and CREF. Coomassie brilliant blue staining (CBB) was used as a control for protein loading. • Figure 2. Microsatellite instability in the germ line. (A) A mononucleotide repeat of 20 repetitive subunits (G)20 was analyzed in a cross between a msh6^-/- father and a wild type mother and their msh6^+/- offspring. The red line indicates the size of the most prominent amplification product in both parents. In the DNA sample of the offspring one of the alleles has lost one repetitive subunit. (B) Fragment analysis of a dinucleotide repeat (CA)36 that is polymorphic between the founder animals. […] The orange peaks represent the size marker that was loaded to determine the size of the PCR product. • Figure 3. Survival of the msh6^-/- rats. The time the rats became moribund is recorded. Red line, msh6^-/- rats (n=17); black line, control group (n=100, Source Harlan). • Figure 4. Tumors observed in the msh6^-/- rat. (A) Section of a mediastinal lymphoblastic lymphoma of a msh6^-/- male rat stained with HE. (B) A higher magnification of the lymphoblastic lymphoma. (C) Section of a leiomyosarcoma of the endometrium stained with HE. (D) Section of an endometrial carcinoma stained with HE. (E) A higher magnification of the endometrial carcinoma. (F) A section of a squamous cell carcinoma in the stomach of a msh6^-/- female rat stained with HE. (G) Section of a fibroadenoma of a msh6^-/- male rat stained with HE. (H) Section of a liver with lymphoblastic lymphoma leukemia stained with HE. (I) Section of a testicle containing a Leydig cell tumor stained with HE. • Figure 5. Survival of msh6^-/- male rats after treatment of different concentrations of ENU compared to untreated msh6^-/- male rats. Time points of the last ENU injection and the beginning of the mutation discovery screen are indicated. • Figure 6. ENU-induced target-selected knockout protocol. (A) Msh6^-/- males were mutagenized and crossed with wild-type Wistar females. At two weeks of age tissue samples from the F1 progeny were taken and DNA was isolated. (B) For every DNA samples 768 pre-selected amplicons were PCR amplified and dideoxy sequenced. (C) Sequence traces for the same amplicon of the different animals was aligned, processed with PolyPhred (Nickerson et al, (1997) Nucleic Acids Res 25, 2745-51) and analyzed using in house developed software. (D) ENU-induced de novo mutations were verified by independent PCR amplification and sequencing and pups carrying interesting mutations were weaned. The whole procedure from taking tissue samples to weaning interesting mutants takes 1 week, indicated in the centre of the figure. • Figure 7. ENU-induced mutation spectrum in MSH6 deficient background compared to MMR proficient animals. […] (B) The change of introducing a premature stop codon with ENU-induced MSH6 proficient and deficient mutation spectra. For the calculations the sequences of the 768 representative exon-containing amplicons were used (* indicates significance, p < 0.05).
All experiments were approved by the Animal Care Committee of the Royal Dutch Academy of Science according to the Dutch legal ethical guidelines. Experiments were designed to minimize the number of required animals and their suffering. Male MSH6 knockout rats (Msh6^1Hubr) of 12 weeks of age were given three weekly intraperitoneal injections of 25, 30 and 35 mg/kg bodyweight ENU. […]

The test system of another data set is msh6^-/- males. The data set can be described thus: ENU dose-response experiment: fertility of treated founder males. The class given is in vivo, rat. On the procedure: All experiments were approved by the Animal Care Committee of the Royal Dutch Academy of Science according to the Dutch legal ethical guidelines. Experiments were designed to minimize the number of required animals and their suffering. Male MSH6 knockout rats (Msh6^1Hubr) of 12 weeks of age were given three weekly intraperitoneal injections of 25, 30 and 35 mg/kg bodyweight ENU. Preparation of ENU (Isopac; Sigma) was done as decribed (for detailed description, see (Smits et al. (2006) Pharmacogenet Genomics 16, 159-69) After the treatment the injected males were monitored for fertility by breeding with one or two females. Pups from these early matings were counted, but not analyzed. Ten weeks after the last injection, fertile males of the highest-dosed fertile group were kept on a weekly breeding scheme with two females to produce F1 progeny for mutational analysis. Animals were housed under standard conditions in groups of two to three per cage per gender under controlled experimental conditions (12-h light/dark cycle, 21±1°C, 60% relative humidity, food and water ad libitum).
The efficiency of ENU is dependent of the dose, reflected by a higher mutagenicity after three weekly administrations of low doses of the mutagen compared to a single high-dose injection (Justice et al. (2000) Mamm Genome 11, 484-8). Furthermore it has been shown that higher ENU concentrations increase the mutation frequency (Smits et al. ([…]) Pharmacogenet Genomics 16, 159-69; Smits and Cuppen (2006) Trends Genet. 22, 232-40). To determine the optimal ENU concentration we performed an ENU dose-response experiment and determined the fertility of the founders. At 12 weeks of age msh6^-/- males were treated with 3 weekly doses of different concentrations of the mutagen. Fertility was determined after a full cycle of spermatogenesis (± 10 weeks) by breeding and/or histological analysis of the testes. At concentrations of 35, 30 and 25 mg/kg, respectively 1/8, 5/8 and 4/6 males were fertile (Table 5). Compared to earlier studies, where at 40 and 35 mg/kg ENU respectively 6/10 and 10/10 rats are fertile (Smits and Cuppen (2006) Trends Genet. 22, 232-40), this is a considerable decrease. It is known that MSH6 deficiency reduces lifespan in both rats (van Boxtel et al. (2007) submitted) and mice (Edelmann (1997) Cell 91, 467-77) as a result of tumor development. MSH6 deficiency increased ENU sensitivity not only in fertility, but also in survival. Whereas untreated msh6^-/- rats show a median survival of 14 months, this is reduced in the ENU treated males to an average mean of 37 ± 3 weeks (∼ 8 months) and no male was alive after 50 weeks of age (Figure 5). This decrease in lifespan was due to the development of tumors, mainly lymphomas (data not shown). […]

The structures appear in SMILES notation. “And” between values parts separate entries of the source, which are not always exact repeats. Equal values may be shown once. Some results are limits rather than exact numbers.

For the compound `CCN(N=O)C(N)=O` [ENU, N-ethyl-N-nitrosourea], the “# Surviving founders” value with msh6^-/- male rats (17 - 19 weeks after last injection) was 5/5; in the data set with msh6^-/- male rats (20 - 22 weeks after last injection) it was 5/5; with msh6^-/- male rats (23 - 25 weeks after last injection), 5/5; with msh6^-/- male rats (26 - 29 weeks after last injection), 3/5; in the data set on msh6^-/- male rats (fertile msh6^-/- males, 14 - 16 weeks after last injection), 5/5. Also, the “age after which no male was alive” value in the data set on msh6^-/- male rats (ENU treated msh6^-/- males) was at most 50 weeks. The “average mean of survival” value is listed as 37 ± 3 weeks with msh6^-/- male rats (ENU treated msh6^-/- males (untreated msh6^-/- rats: median survival 14 months)) and around 8 months with msh6^-/- male rats (ENU treated msh6^-/- males, same value restated in months). For the same compound, the “# Fertile males” value in the data set on msh6^-/- males (MSH6^-/- 3 x 25 mg of ENU per kg bodyweight (three weekly injections), 6 males injected, testes histology and/or at least one litter 10 weeks after last injection) was 4/6 and 4; with msh6^-/- males (MSH6^-/- 3 x 30 mg of ENU per kg bodyweight (three weekly injections), 8 males injected), 5/8 and 5; with msh6^-/- males (MSH6^-/- 3 x 35 mg of ENU per kg bodyweight (three weekly injections), 8 males injected), 1/8 and 1; with msh6^-/- males (MSH6^-/- Total of the three dose groups, 24 males injected as printed), 10.
